Measured values reported in patent US6603023B2 (priority 1996, dated 2003).
Where two headings read alike, the source gives them in different places. Marks after values point to notes of the source that are not given here.

What was measured:
[1] = system: CCRF-CEM human T-cell acute lymphoblastic leukemia cell line; experiment: XTT cytotoxicity (cell growth inhibition), CCRF-CEM
Description: The DC-3F hamster lung fibroblast cell line and its actinomycin D-selected sublines (DC-3F/ADII and DC-3F/ADX) were obtained from the Memorial Sloan-Kettering Cancer Center (MSKCC).
(§1) The drug-resistant cell lines were continuously cultured in the presence of the selecting agent, AD, DX, VBL or VM to maintain the drug resistant phenotypes. […] All cells were cultured in RPMI 1640-10% FBS at 37° C. 5% CO2 (see below).
(§2) The cells were cultured at an initial density of 5×10^4 cells/mL. They were maintained in a 5% CO2-humidified atmosphere at 37° C. in RPMI-1640 medium (GIBCO-BRL, Gaithersburg, Md.) containing penicillin (100 U/mL), streptomycin ([…]) (GIBCO-BRL) and 10% heat inactivate fetal bovine serum. Culture for cell suspension (such as for CCRF-CEM, P388 and sublines), were performed by the XTT-microculture tetrazonium method (Scudiero, D. A. et al., Cancer Res. 1988, 48, 4827-4833) in duplicate in 96-well microtiter plates.
(§3) 2′,3′-Bis(methoxy-4-nitro-5-sufophenyl)-5-[(phenylamino)carbonyl]2H-tetrazolium hyudroxide (XTT) was prepared at 1 mg/mL in prewarmed (37° C.) medium without serum. Phenazine methosulfate (PMS) and fresh XTT were mixed together to obtain 0.025 mM PMS-XTT solution (25 μL of the stock 5 mM PMS was added per 5 mL of 1 mg/mL XTT). Following a 72 h incubation, 50 μL of the assay aliquots were added to each well of the cell culture. After incubation at 37° C. for 4 h, absorbance at 450 nm and 630 nm was measured with a microplate reader (EL340, Bio-Tek Instruments, Inc., Winooski, Vt.).

CCRF-CEM/VBL100 = experiment: cells; format: cell-based, human; settings: for IC50: read-out: IC50
Description: as §1, §2, §3

CCRF-CEM/VM1 = experiment: cells; format: cell-based, human; settings: Table 6; for IC50: single determinations, read-out: IC50
Description: as §1, §2, §3

[2] = system: human mammary carcinoma MX-1 xenograft; settings: MX-1; i.p.; comparison with Camptothecin, VBL, EpoB (order wraps over rows r7-r8)
Description: (§4) DMSO was used as a vehicle for epothilones. Each mouse received ≦40 μL DMSO in all experiments.
(§5) Athymic nude mice (nu/nu) were used for MX-1 and MCF-7/Adr human mammary carcinoma xenografts. Mice were obtained from Taconic Laboratory Animals and Service (Germantown, N.Y.: outbred, Swiss background).

[3] = system: MDR human mammary adenocarcinoma MCF-7/Adr xenograft; experiment: in vivo
Description: as §4, §5

[4] = Table 6, single determinations, listed as 4
[5] = Table 6, single determinations, listed as 6
[6] = Table 6, single determinations, listed as 9
[7] = Table 6, single determinations, listed as EPOTHILONE B (Natural)
[8] = camptothecin 3 mg/kg i.p. Q2Dx5 from day 8, day 11
[9] = camptothecin 3 mg/kg i.p. Q2Dx5 from day 8, day 13
[10] = camptothecin 3 mg/kg i.p. Q2Dx5 from day 8, day 15
[11] = camptothecin 3 mg/kg i.p. Q2Dx5 from day 8, day 17
[12] = high doses: Taxol 12, Adriamycin 3, Camptothecin 3.0 mg/kg i.p. day 8,10,12,14,16

## CC(=Cc1csc(C)n1)C1CC=CCCCC(C)C(O)C(C)C(=O)C(C)(C)C(O)CC(=O)O1 (stereo not shown) [#4]
[1]; [4]
  IC50: 2120 nM
[1]; Table 7, CEM, listed as 4
  IC50: 2100 nM
CCRF-CEM/VBL100; [4]
  IC50: 43000 nM
CCRF-CEM/VBL100; Table 7, CEM/VBL, listed as 4
  IC50: 43800 nM
CCRF-CEM/VM1; listed as 4
  IC50: 2760 nM

## CC(=Cc1csc(C)n1)C1CC2OC2CCCCC(O)C(C)C(=O)C(C)(C)C(O)CC(=O)O1 (mixture of isomers) [8-desmethyl Mix-cis Epo]
[1]; Table 6, single determinations
  IC50: 960 nM
CCRF-CEM/VBL100; Table 6, single determinations
  IC50: 5950 nM
CCRF-CEM/VM1
  IC50: 2550 nM

## CC(=Cc1csc(C)n1)C1CC2OC2CCCC(C)C(O)C(C)C(=O)C(C)(C)C(O)CC(=O)O1 (stereo not shown) [#5]
[1]; Table 6, single determinations
  IC50: > 20000 nM
[1]; Table 7, CEM
  IC50: > 20000 nM
CCRF-CEM/VBL100; Table 6, single determinations
  IC50: 35200 nM
CCRF-CEM/VBL100; Table 7, CEM/VBL
  IC50: 35200 nM
CCRF-CEM/VM1
  IC50: 98000 nM

## epothilone B
[1]; Table 6, single determinations
  IC50: 0.33 nM
CCRF-CEM/VBL100; Table 6
  relative resistance (fold) vs parent cell line: (6.1X)
CCRF-CEM/VBL100; Table 6, single determinations
  IC50: 2.1 nM
CCRF-CEM/VM1
  relative resistance (fold) vs parent cell line: (3.6X)
  IC50: 1.2 nM

## CC(=Cc1csc(C)n1)C1CC=CCCCC(C)C(O)C(C)C(=O)C(C)(C)C(O)CC(=O)O1 (stereo not shown) [#6]
[1]
  IC50: 52 nM
[1]; CCRF-CEM leukemic cells
  Rel. Value (potency relative to Epo B): 1/149
[1]; [5]
  IC50: 52 nM
[1]; Table 7, CEM, listed as 6
  IC50: 52 nM
CCRF-CEM/VBL100; [5]
  IC50: 35 nM
CCRF-CEM/VBL100; Table 7, CEM/VBL, listed as 6
  IC50: 35 nM
CCRF-CEM/VBL100
  IC50: 35 nM
CCRF-CEM/VM1; listed as 6
  IC50: 111 nM

## C/C(=C\c1csc(C)n1)[C@@H]1C[C@@H]2O[C@]2(C)CCC[C@H](C)[C@H](O)[C@@H](C)C(=O)C(C)(C)[C@@H](O)CC(=O)O1 [#9, epothilone B]
[1]; [6]
  IC50: 0.44 nM
[1]; [7]
  IC50: 0.17 nM
[1]; Table 7, CEM, listed as natural epothitone B
  IC50: 0.44 nM
CCRF-CEM/VBL100; Table 6
  relative resistance (fold) vs parent cell line: (7.0X)
CCRF-CEM/VBL100; [6]
  IC50: 2.6 nM
CCRF-CEM/VBL100; [7]
  IC50: 1.7 nM
CCRF-CEM/VBL100; Table 7, CEM/VBL, listed as natural epothitone B
  IC50: 2.63 nM
CCRF-CEM/VM1; listed as 9
  IC50: 1.8 nM
CCRF-CEM/VM1; listed as EPOTHILONE B (Natural)
  IC50: 0.77 nM

## CC[C@@]1(O)C(=O)OCc2c1cc1n(c2=O)Cc2cc3ccccc3nc2-1 [Campothecin, camptothecin]
[2]
  Therapeutic effect Rank Order: dEpoB > Camptothecin >
[3]; CPT 3 mg/kg Q2Dx5 i.p.
  toxicity: moderate toxicity without lethality
[3]; MCF-7/Adr, i.p. (order wraps over rows r13-r14)
  Therapeutic effect Rank Order: dEpoB >> Camptothecin >
[3]; camptothecin 3 mg/kg i.p. Q2Dx5 from day 8
  Toxicity Death: 0/6
[3]; [8]
  Average Body Weight Change: -0.6 g
  Average Tumor Size (T/C): 0.95
[3]; [9]
  Average Body Weight Change: -0.4 g
  Average Tumor Size (T/C): 0.76
[3]; [10]
  Average Body Weight Change: -0.8 g
  Average Tumor Size (T/C): 0.61
[3]; [11]
  Average Body Weight Change: -0.9 g
  Average Tumor Size (T/C): 0.43*
[3]; camptothecin 3 mg/kg, day 17
  tumor size reduction: 57%
[3]; [12]
  Average Body Weight (change), Day 11: -0.6 g
  Average Body Weight (change), Day 13: -0.4 g
  Average Body Weight (change), Day 15: -0.8 g
  Average Body Weight Change, Day 17: -0.9 g
  Average Tumor Volume (T/C), Day 11: 0.95 T/C
  Average Tumor Volume (T/C), Day 13: 0.76 T/C
  Average Tumor Volume (T/C), Day 15: 0.61 T/C
  Average Tumor Volume (T/C), Day 17: 0.43 T/C
  Died: 0/6
[3]; initial weight, first treatment day, high doses: Taxol 12, Adriamycin 3, Camptothecin 3.0 mg/kg i.p. day 8,10,12,14,16
  Average Body Weight, Day 8: 24.5 g
